47 compounds from US20240360114A1 (SIRONAX LTD., priority 2021, published 2024) can be followed below.

The structures appear in SMILES notation.

The first test deals with HT-1080 cells. Nature of the test: HT-1080 cell viability assay (ferroptosis induced by RSL3, Cell Titer-Glo). To be noted: Homo sapiens, HT-1080, 20 h, ferroptosis inducer RSL3, 20 hours, ferroptosis inhibitory activity, Table 2. The test is classed as cell-based. In a few lines:
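Cells seeded overnight, then co-treated with RSL3 and compound (3-fold, 10-point dilution, top 1.1 μM) for 20 hours. Viability by CellTiter-Glo luminescence, normalized to untreated controls; EC50 from sigmoidal non-linear regression.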
On the technique in general: In ATP-based viability assays light output follows the ATP content of the culture.
On to `CC(C)C1CCN(c2ccc(NC3CCC(N)CC3)cc2)CC1` (centres unmarked) [Compound 63, N1-(4-(4-isopropylpiperidin-1-yl)phenyl)cyclohexane-1,4-diamine], for which the EC50 (usually the concentration at which the effect is half-maximal) lay in the range of 0.1 to 100 nM.

`Cc1cc(NC2CCC(N)CC2)ccc1N1CCC(C(F)(F)F)CC1` (centres unmarked) [Compound 66, N1-(3-methyl-4-(4-(trifluoromethyl)piperidin-1-yl)phenyl)cyclohexane-1,4-diamine]: the EC50 fell in the range of 0.1 to 100 nM.

`NC1CCC(Nc2ccc(N3CCC(C(F)(F)F)CC3)c(Cl)c2)CC1` (centres unmarked) [Compound 67, N1-(3-chloro-4-(4-(trifluoromethyl)piperidin-1-yl)phenyl)cyclohexane-1,4-diamine] gave an EC50 of 0.1 to 100 nM.

As to `NC1CCC(Nc2ccc(N3CCC(C(F)(F)F)CC3)c(F)c2)CC1` (centres unmarked) [Compound 68, N1-(3-fluoro-4-(4-(trifluoromethyl)piperidin-1-yl)phenyl)cyclohexane-1,4-diamine], the EC50 lay within 0.1 to 100 nM.

`Cc1cc(N2CCC(C(F)(F)F)CC2)ccc1NC1CCC(N)CC1` (centres unmarked) [Compound 69, N1-(2-methyl-4-(4-(trifluoromethyl)piperidin-1-yl)phenyl)cyclohexane-1,4-diamine] yielded an EC50 of 0.1 to 100 nM.

`NC1CCC(Nc2ccc(N3CCC(C(F)(F)F)CC3)cc2Cl)CC1` (centres unmarked) [Compound 70, N1-(2-chloro-4-(4-(trifluoromethyl)piperidin-1-yl)phenyl)cyclohexane-1,4-diamine]: the EC50 fell in the range of 0.1 to 100 nM.

Consider `NC1CCC(Nc2ccc(N3CCC(C(F)(F)F)CC3)cc2F)CC1` (centres unmarked) [Compound 71, N1-(2-fluoro-4-(4-(trifluoromethyl)piperidin-1-yl)phenyl)cyclohexane-1,4-diamine], for which the EC50 is 0.1 to 100 nM.

Compound `CCN1CCC(Nc2ccc(C3CCCCC3)cc2)CC1` [Compound 72, N-(4-cyclohexylphenyl)-1-ethylpiperidin-4-amine] displayed an EC50 of 0.1 to 100 nM.

Take `CC1(C)CCC(c2ccc(NC3CCC(N)CC3)cc2)CC1` (centres unmarked) [Compound 74, N1-(4-(4,4-dimethylcyclohexyl)phenyl)cyclohexane-1,4-diamine]: the EC50 lay within 0.1 to 100 nM.

For the compound `COCC1CCC(Nc2ccc(C3CCC(C)(C)CC3)cc2)CC1` (centres unmarked) [Compound 75], the EC50 lay within 100 to 1000 nM.

The compound `CN1CCC(NC(=O)C2CCC(Nc3ccc(C4CCC(C)(C)CC4)cc3)CC2)CC1` (centres unmarked) [Compound 77, 4-((4-(4,4-dimethylcyclohexyl)phenyl)amino)-N-(1-methylpiperidin-4-yl)cyclohexane-1-carbox amide] had an EC50 of 0.1 to 100 nM.

Turning to `CC1(C)CCC(c2ccc(NC3CCC(CN)CC3)cc2)CC1` (centres unmarked) [Compound 78, N-(4-(aminomethyl)cyclohexyl)-4-(4,4-dimethylcyclohexyl)aniline], the half-maximal effective concentration (EC50) was 0.1 to 100 nM.

In turn, `COCCOCCNc1ccc(C2CCC(C)(C)CC2)cc1` [Compound 79, 4-(4,4-dimethylcyclohexyl)-N-(2-(2-methoxyethoxy)ethyl)aniline] registered a 50% effective concentration (EC50) of 100 to 1000 nM.

With `Cc1nc(C2CCC(C)(C)CC2)ccc1NC1CCC(CN)CC1` (centres unmarked) [Compound 80, N-(4-(aminomethyl)cyclohexyl)-6-(4,4-dimethylcyclohexyl)-2-methylpyridin-3-amine], the concentration giving a half-maximal response (EC50) is 100 to 1000 nM.

In turn, `CC1(C)CCC(c2ccc(NC3CCC(CN)C3)cc2)CC1` (centres unmarked) [Compound 83, N-(3-(aminomethyl)cyclopentyl)-4-(4,4-dimethylcyclohexyl)aniline] returned an EC50 of 0.1 to 100 nM.

`CC1(C)CCC(c2ccc(NC3CC(CN)C3)cc2)CC1` (centres unmarked) [Compound 84, N-(3-(aminomethyl)cyclobutyl)-4-(4,4-dimethylcyclohexyl)aniline] displayed an EC50 of 0.1 to 100 nM.

Turning to `CC1(C)CCC(c2ccc(NC3CCCC(CN)CC3)cc2)CC1` (centres unmarked) [Compound 85, 4-(aminomethyl)-N-(4-(4,4-dimethylcyclohexyl)phenyl)cycloheptan-1-amine], the EC50 lay within 0.1 to 100 nM.

`CNCC1CCC(Nc2ccc(C3CCC(C)(C)CC3)cc2)CC1` (centres unmarked) [Compound 86, 4-(4,4-dimethylcyclohexyl)-N-(4-((methylamino)methyl)cyclohexyl)aniline]: the EC50 was in the range of 0.1 to 100 nM.

Consider `CNCC1CCC(Nc2ccc(C(C)(C)C)cc2)CC1` (centres unmarked) [Compound 87, 4-(tert-butyl)-N-(4-((methylamino)methyl)cyclohexyl)aniline], for which the EC50 fell in the range of 0.1 to 100 nM.

`NCC1CCC(Nc2ccc(C(F)(F)F)cc2)CC1` (centres unmarked) [Compound 88, N-(4-(aminomethyl)cyclohexyl)-4-(trifluoromethyl)aniline] registered an EC50 of 1000 to 10000 nM.

For the compound `CN(C)C(=O)C1CCC(Nc2ccc(C3CCC(C)(C)CC3)cc2)CC1` (centres unmarked) [Compound 89, 4-((4-(4,4-dimethylcyclohexyl)phenyl)amino)-N,N-dimethylcyclohexane-1-carboxamide], the concentration for a half-maximal effect (EC50) fell in the range of 0.1 to 100 nM.

In turn, `CC1(C)CCC(c2ccc(NC3CCC(CO)CC3)cc2)CC1` (centres unmarked) [Compound 90] gave an EC50 of 0.1 to 100 nM.

The compound `CC1(C)CCC(c2ccc(NC3CCOCC3)cc2)CC1` [Compound 93, N-(4-(4,4-dimethylcyclohexyl)phenyl)tetrahydro-2H-pyran-4-amine] gave an EC50 of 0.1 to 100 nM.

The compound `CC1(C)CCC(c2ccc(NC3CC(N)C3)cc2)CC1` (centres unmarked) [Compound 94, N1-(4-(4,4-dimethylcyclohexyl)phenyl)cyclobutane-1,3-diamine] displayed an EC50 of 0.1 to 100 nM.

As for `CC(C)(C)c1ccc(NC2C3CC4CC2CC(N)(C4)C3)cc1` (centres unmarked) [Compound 95, N^4-(4-(tert-butyl)phenyl)adamantane-1,4-diamine], the EC50 lay in the range of 0.1 to 100 nM.

As for `CC(C)(C)c1ccc(NC2CCC(CN)CC2)cc1` (centres unmarked) [Compound 96, N-(4-(aminomethyl)cyclohexyl)-4-(tert-butyl)aniline], the 50% effective concentration (EC50) was in the range of 0.1 to 100 nM.

On to `CC(C)(C)c1ccc(NC2C3CC4CC2CC(CN)(C4)C3)cc1` (centres unmarked) [Compound 98, 5-(aminomethyl)-N-(4-(tert-butyl)phenyl)adamantan-2-amine], for which the EC50 lay within 0.1 to 100 nM.

For `CC1(N)CCC(Nc2ccc3c(c2)CCC3)CC1` (centres unmarked) [Compound 99, N1-(2,3-dihydro-1H-inden-5-yl)-4-methylcyclohexane-1,4-diamine], the EC50 was in the range of 0.1 to 100 nM.

As for `CC1(C)CCC(c2ccc(NCCN3CCCC3)cc2)CC1` [Compound 101, 4-(4,4-dimethylcyclohexyl)-N-(2-(pyrrolidin-1-yl)ethyl)aniline], the EC50 was in the range of 0.1 to 100 nM.

`CC1(C)CCC(c2ccc(NC3CCNC(=O)C3)cc2)CC1` (centres unmarked) [Compound 102, 4-((4-(4,4-dimethylcyclohexyl)phenyl)amino)piperidin-2-one] yielded an EC50 of 0.1 to 100 nM.

Compound `CN1CCC(Nc2ccc(C3CCC(C)(C)CC3)cc2)CC1=O` (centres unmarked) [Compound 103, 4-((4-(4,4-dimethylcyclohexyl)phenyl)amino)-1-methylpiperidin-2-one] displayed an EC50 of 100 to 1000 nM.

For `CC1(C)CCC(c2ccc(NCCN3CCCC3=O)cc2)CC1` [Compound 104, 1-(2-((4-(4,4-dimethylcyclohexyl)phenyl)amino)ethyl) pyrrolidin-2-one], the EC50 is 100 to 1000 nM.

Compound `CC1(C)CCC(c2ccc(NCCCCN3CCCC3)cc2)CC1` [Compound 105, 4-(4,4-dimethylcyclohexyl)-N-(4-(pyrrolidin-1-yl)butyl)aniline] had an EC50 of 0.1 to 100 nM.

For the compound `c1cc(C2CCCCC2)ccc1NC1CCNC1` (centres unmarked) [Compound 108, N-(4-cyclohexylphenyl)pyrrolidin-3-amine], the EC50 is 100 to 1000 nM.

`c1cc(C2CCCCC2)ccc1NC1CNC1` [Compound 109, N-(4-cyclohexylphenyl)azetidin-3-amine] displayed an EC50 of 100 to 1000 nM.

`O=C1CC(C(=O)NC2CCC(Nc3ccc(C4CCCCC4)cc3)CC2)CN1` (centres unmarked) [Compound 110, N-(4-((4-cyclohexylphenyl)amino)cyclohexyl)-5-oxopyrrolidine-3-carboxamide] had a 50% effective concentration (EC50) of 100 to 1000 nM.

The compound `O=C1NC[C@H](C(=O)NC2CCC(Nc3ccc(C4CCCCC4)cc3)CC2)N1` (stereo partly drawn) [Compound 111, (R)—N-(4-((4-cyclohexylphenyl)amino)cyclohexyl)-2-oxoimidazolidine-4-carboxamide] displayed a concentration for a half-maximal effect (EC50) of 100 to 1000 nM.

`O=C1CC(C(=O)NC2CC(Nc3ccc(C4CCCCC4)cc3)C2)CN1` (centres unmarked) [Compound 112, N-(3-((4-cyclohexylphenyl)amino)cyclobutyl)-5-oxopyrrolidine-3-carboxamide] came in with an EC50 of 100 to 1000 nM.

`O=C1NC[C@H](C(=O)NC2CC(Nc3ccc(C4CCCCC4)cc3)C2)N1` (stereo partly drawn) [Compound 113, (R)—N-(3-((4-cyclohexylphenyl)amino)cyclobutyl)-2-oxoimidazolidine-4-carboxamide]: the EC50 was 100 to 1000 nM.

In turn, `CC1(C)CCC(c2ccc(NC3CCC(CCN)CC3)cc2)CC1` (centres unmarked) [Compound 118, N-(4-(2-aminoethyl)cyclohexyl)-4-(4,4-dimethylcyclohexyl)aniline] showed an EC50 of 0.1 to 100 nM.

As for `CC1(N)CCC(Nc2ccc3c(c2)CCCC3)CC1` (centres unmarked) [Compound 119, 1-methyl-N4-(5,6,7,8-tetrahydronaphthalen-2-yl)cyclohexane-1,4-diamine], the concentration for a half-maximal effect (EC50) was in the range of 0.1 to 100 nM.

As to `NC1CCC(Nc2ccc(C3CCCCC3)cc2)CC1` (centres unmarked) [Compound 122, N1-(4-cyclohexylphenyl)cyclohexane-1,4-diamine], the EC50 is 0.1 to 100 nM.

As for `CC(C)(C)c1ccc(NC2CC(N)C2)cc1` (centres unmarked) [Compound 123, N1-(4-(tert-butyl)phenyl)cyclobutane-1,3-diamine], the EC50 lay within 100 to 1000 nM.

In the case of `CC(C)(C)c1ccc(NC2CCC(N)C2)cc1` (centres unmarked) [Compound 124, N1-(4-(tert-butyl)phenyl)cyclopentane-1,3-diamine], the EC50 was 100 to 1000 nM.

`CCc1ccc(NC2CCC(N)CC2)cc1` (centres unmarked) [Compound 125, N1-(4-ethylphenyl)cyclohexane-1,4-diamine] yielded a 50% effective concentration (EC50) of 100 to 1000 nM.

Staying with this test, now noted: Homo sapiens, ferroptosis inducer RSL3, 20 hours, ferroptosis inhibitory activity, Table 2.
`CN1CCC(N2CCC(Nc3ccc(C4CCC(C)(C)CC4)cc3)CC2)CC1` [Compound 100, N-(4-(4,4-dimethylcyclohexyl)phenyl)-1′-methyl-[1,4′-bipiperidin]-4-amine] showed a 50% effective concentration (EC50) of 100 to 1000 nM.

Compound `CC1(C)CCC(c2ccc(NC3CCC(CNC(N)=O)CC3)cc2)CC1` (centres unmarked) [Compound 116, 1-((4-((4-(4,4-dimethylcyclohexyl)phenyl)amino)cyclohexyl)methyl)urea] returned an EC50 of 0.1 to 100 nM.
